The text below walks through data of US5561117A, “Bridged bis-aryl carbinol derivatives, compositions and methods of use” (Schering Corporation, priority 1994, dated 1996).

The IC50 is the point on the concentration scale where inhibition reaches its midpoint.

For experiment [1], the system named is PAF-induced platelet aggregation (human platelets). Kind of experiment: In vitro platelet aggregation assay: inhibition of PAF-induced aggregation in platelet-rich plasma. Format: cell-based. Conditions: PAF-induced aggregation of human PRP, 2 min preincubation, 37° C., PAF 1-5×10^-8 M, read-out: PAF Antagonism (in vitro) IC50. As for the experimental part: A. In Vitro Studies--Platelet Aggregation Assay
Platelet-activating factor (PAF) causes aggregation of platelets by a receptor-mediated mechanism. Therefore, PAF-induced platelet aggregation provides a simple and convenient assay to screen compounds for PAF antagonism.
Human blood (50 ml) was collected from healthy male donors in an anticoagulant solution (5 ml) containing sodium citrate (3.8%) and dextrose (2%). Blood was centriguged at 110×g for 15 min. and the supernatant platelet-rich plasma (PRP) carefully transferred into a polypropylene tube. Platelet-poor-plasma (PPP) was prepared by centrifuging PRP at 12,000×g for 2 min. (Beckman Microfuge B). PRP was used within 3 hr. of drawing the blood.
PAF was dissolved in chloroform:methanol (1:1, v/v) at a concentration of 2 mg/ml and stored at -70° C. An aliquot of this solution was transferred to a polypropylene tube and dried under a flow of nitrogen gas. To the dried sample was added Hepes-saline-BSA (BSA=bovine serum albumen) buffer (25 mM Hepes, pH 7.4, […], 0.7 mM MgCl2 and 0.1% BSA) to obtain a 1 mM solution and sonicated for 5 min. in a bath sonicator. This stock solution was further diluted to appropriate concentrations in Hepes-saline-BSA buffer. Collagen (Sigma) and adenosine diphosphate (ADP) (Sigma) were purchased as solutions. Test compounds were initially dissolved in dimethyl sulfoxide (DMSO) at a concentration of 50 mM and then further diluted in Hepes-saline-BSA buffer to achieve appropriate concentrations.
When an aggregating agent such as PAF is added to PRP, platelets aggregate. An aggregometer quantifies this aggregation by measuring and comparing light (infra-red) transmission through PPP and PRP. Aggregation assays were performed using a dual-channel aggregometer (Model 440, Chrono-Log Corp., Havertown, Pa.). PRP (0.45 ml) in aggregometer cuvettes was continually stirred (37° C.). Solutions (50 μL) of test compounds or vehicel were added to the PRP and, after incubation for 2 min., 10-15 μl aliquots of PAF solution were added to achieve a final concentration of 1-5×10^-8 M. In different experiments the aggreatory response was kept within a set limit by varying the concentration of PAF. Incubations were continued until the increase in light transmission reached a maximum (usually 2 min.). This increase in light transmission reflecting platlet aggregation is transmitted to a computer by the Chrono-Log model 810 AGGRO/LINK interface. The AGGRO/LINK calculates the slope of transmission change, thus providing the rate of aggregation. Values for inhibition were calculated by comparing rates of aggregation obtained in the absence and the presence of the compound. For each experiment, a standard PAF antagonist such as 8-chloro-6,11-dihydro-11-(1-acetyl-4-piperidylidene)-5H-benzo[5,6]cyclohepta[1,2-b]pyridine was used as a positive control. […]

Experiment [2] deals with PAF-induced bronchospasm. Put plainly: Spasmogen-induced bronchospasm in guinea pigs, PAF challenge. The format is in vivo, guinea pig (male Hartley). The settings on record: dose 3 mpk, PAF 0.4 μg/kg i.v., inhibition of increase in inflation pressure vs control.
Experiment [3] concerns histamine-induced bronchospasm. Put plainly: Spasmogen-induced bronchospasm in guinea pigs, histamine challenge. The format is in vivo, guinea pig (male Hartley). The settings on record: dose 3 mpk, histamine 10 ug/kg i.v., inhibition of increase in inflation pressure vs control.

Where only a bound is given, the exact number is not on record here.

Regarding `[O-][n+]1ccc(CN2CCC(C3(O)c4ccccc4Oc4cnccc43)CC2)cc1` (stereo not shown) [IA-9], in experiment [1], the IC50 was over 10000 nM.

In the case of `CN1c2ccccc2C(O)(C2CCN(C(=O)c3cc[n+]([O-])cc3)CC2)c2ccccc21` [IA-5], the “Agonist Bronchospasm (in Vivo)-oral, PAF, % Inhibition” value in experiment [2] came to 7%. Further, the concentration for half-maximal inhibition (IC50) in experiment [1] was determined as 5000 nM.

As to `O=C(c1cc[n+]([O-])cc1)N1CCC(C2(O)c3ccccc3Oc3cccnc32)CC1` (stereo not shown) [IA-3], in experiment [2], the “Agonist Bronchospasm (in Vivo)-oral, PAF, % Inhibition” value was 97%. The “Agonist Bronchospasm (in Vivo)-oral, Histamine, % Inhibition” value in experiment [3] worked out at 0%. For the same compound, in experiment [1], the IC50 was 2000 nM.

Regarding `O=C(c1cc[n+]([O-])cc1)N1CCC(C2(O)c3ccccc3Sc3ccccc32)CC1` [IA-6], in experiment [2], the “Agonist Bronchospasm (in Vivo)-oral, PAF, % Inhibition” value was found to be 20%. In addition, the IC50 in experiment [1] was found to be 1500 nM.

For the compound `O=C(c1cc[n+]([O-])cc1)N1CCC(C2(O)c3ccccc3Oc3ncccc32)CC1` (stereo not shown) [IA-4], the IC50 in experiment [1] worked out at 800 nM.

As to `O=C(c1cc[n+]([O-])cc1)N1CCC(C2(O)c3ccccc3Oc3cnccc32)CC1` (stereo not shown) [IA-1], the IC50 in experiment [1] was 5000 nM.

`[O-][n+]1ccc(CN2CCC(C3(O)c4ccccc4Oc4ccccc43)CC2)cc1` [IA-10]: the 50% inhibitory concentration (IC50) in experiment [1] stood at 10000 nM.

`[O-][n+]1ccc(CN2CCC(C3(O)c4ccccc4Oc4cccnc43)CC2)cc1` (stereo not shown) [IA-11]: in experiment [1], the IC50 came to 5000 nM.

`[O-][n+]1ccc(CN2CCC(C3(O)c4ccccc4Oc4ncccc43)CC2)cc1` (stereo not shown) [IA-12]: the “Agonist Bronchospasm (in Vivo)-oral, PAF, % Inhibition” value in experiment [2] was 42%. The “Agonist Bronchospasm (in Vivo)-oral, Histamine, % Inhibition” value in experiment [3] was 0%. The IC50 in experiment [1] came to 3000 nM.

As to `O=C(c1cc[n+]([O-])cc1)N1CCC(C2(O)c3ccccc3CCc3cccnc32)CC1` (stereo not shown) [IA-8], the “Agonist Bronchospasm (in Vivo)-oral, PAF, % Inhibition” value in experiment [2] worked out at 25%. For the same compound, the IC50 in experiment [1] amounted to 2000 nM.

For `[O-][n+]1ccc(CN2CCC(C3(O)c4ccccc4Sc4ccccc43)CC2)cc1` [IA-14], in experiment [1], the IC50 worked out at 1750 nM.

With `O=C(c1cc[n+]([O-])cc1)N1CCC(C2(O)c3ccccc3Oc3ccccc32)CC1` [IA-2], in experiment [1], the IC50 came to 5000 nM.
